For assay [1], the target named is T1, MraY from S. aureus (Staphylococcus aureus, UniProt Q2FZ93).
T1 construct: made in house; host or cells: E. coli Lemo21
The experiment in a line: Fluorescence-based in vitro MraY inhibition assay (dansylated Park's nucleotide, crude membrane preparation). The class given is biochemical. The note with it: for IC50: crude membrane preparation of MraY heterologously overexpressed in E. coli, triplicates, mean ± standard deviation, read-out: IC50, in vitro inhibitory activity against MraY from S. aureus; for fold weaker MraY inhibition than (6′S)-counterpart: (6′R)-derivatives 12 and 13 vs. 10 and 11, respectively. On the procedure: Target compounds 10–17 were tested in vitro for their inhibitory potency towards the bacterial target enzyme MraY. Therefore, a previously reported fluorescence-based assay was employed, using dansylated Park’s nucleotide and MraY from S. aureus (recombinantly overexpressed in E. coli).
The overexpression of MraY was performed as described before. A plasmid containing the mraY gene was transformed into E. coli Lemo21 cells, which were plated on lysogeny broth (LB) agar containing kanamycin (50 μg/mL) and chloramphenicol (30 μg/mL). A single colony was picked to induce an overnight culture (10 mL) of LB media containing kanamycin (50 μg/mL) and chloramphenicol (30 μg/mL), which was incubated at 37 °C and 180 rpm for 16 h. A culture of LB media (500 mL) containing kanamycin (50 μg/mL), chloramphenicol (30 μg/mL), and L-rhamnose (1 mM) was inoculated with the overnight culture (500 μL) and then grown at 37 °C and 180 rpm to OD600 0.6. Subsequently, MraY expression was induced with IPTG (1 mM) and the culture was incubated at 37 °C and 180 rpm for 4 h. Cells were then centrifuged and the pellet was resuspended in buffer A (50 mM Tris-HCl buffer pH 7.5, 1 mM MgCl2, 2 mM β-mercaptoethanol, 15 mL overall). Egg white lysozyme (spatula tip), DNAse I (spatula tip), and cOmplete^TM EDTA-free protease inhibitor cocktail (one tablet) were added. Cells were lysed using sonication and then incubated at 4 °C for 30 min. The lysate was centrifuged and the supernatant was centrifuged again. The resultant pellet was resuspended in buffer A (1.7 mL), flash frozen in liquid nitrogen and stored at −80 °C (aliquots of 20 μL). This MraY-containing crude membrane preparation (overall protein concentration ~20.5 mg/mL as determined by OD280) was diluted with water (final overall protein concentration 1 mg/mL) and then directly used for MraY activity assays without further purification.
The assay was performed as described before. The crude membrane preparation of MraY from S. aureus (1 μL, vide supra) was added to a mixture of undecaprenyl phosphate (50 μM), dansylated Park′s nucleotide (7.5 μM), and the tested compound (at varying concentrations) in buffer (100 mM Tris-HCl buffer pH 7.5, 200 mM KCl, 10 mM MgCl2, 0.1% Triton X-100, 20 μL overall). Fluorescence of the assay mixtures over time was monitored at λex = 355 nm and λem = 520 nm (plate reader, 384-well plate format). MraY activity at a certain inhibitor concentration was determined using linear regression from 0 to 2 min. This measure of activity was plotted against logarithmic inhibitor concentrations and fitted using a sigmoidal fit. This procedure furnished IC50 values with standard deviations.

In another assay the test system is E. coli. The experiment in a line: Antibacterial activity (MIC) against E. coli. Type of assay: cell-based. The note with it: Escherichia coli, not active. On the procedure:
Muraymycin analogues 10–17 were also studied for their antibacterial activities against E. coli, but were not active (MIC > 50 μg/mL).

The target in assay [2] is T1, MraY from S. aureus. More on the design: method as in PMID 29438582. Particulars: reference compound in Table 1; same value as given in b6; read-out: IC50, in vitro inhibitory activity against MraY from S. aureus; cited from earlier work.

One may read the IC50 as the point on the concentration scale where inhibition reaches its midpoint. A word on the MIC: it is the lowest concentration that inhibits growth of the organism. A high value points to weaker potency.

Like-named read-outs stand apart in the source and are kept apart here. Bounds are passed on as bounds.

T1 sequence (Q2FZ93 whole entry): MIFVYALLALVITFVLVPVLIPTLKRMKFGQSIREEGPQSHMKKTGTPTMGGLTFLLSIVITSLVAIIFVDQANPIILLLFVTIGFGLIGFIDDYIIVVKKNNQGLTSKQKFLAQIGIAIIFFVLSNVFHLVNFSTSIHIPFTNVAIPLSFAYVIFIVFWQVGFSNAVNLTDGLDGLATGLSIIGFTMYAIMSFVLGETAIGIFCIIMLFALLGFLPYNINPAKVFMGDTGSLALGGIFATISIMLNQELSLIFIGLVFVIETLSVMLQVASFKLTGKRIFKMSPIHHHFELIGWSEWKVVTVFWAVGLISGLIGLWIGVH

Consider `CC(C)C[C@H](NC(=O)[C@H](CCCCN)NC(=O)N[C@H](C(=O)O)C(C)C)C(=O)NCCCN[C@@H](C[C@H]1O[C@@H](n2ccc(=O)[nH]c2=O)[C@H](O)[C@@H]1O)C(=O)O` [Compound 10, 5′-deoxy-L-Leu muraymycin analogue], for which, at MraY from S. aureus [1] (compounds 10 vs. 9, epicapreomycidine replaced by L-lysine, nonhydroxylated L-leucine), the “fold loss in inhibitory potency (MraY) vs. 9” value is reported as ~ 26 fold. Also, on MraY from S. aureus [1], the IC50 stood at 2.5 ± 0.6 µM. The minimum inhibitory concentration (MIC) against E. coli was more than 50 µg/mL.

With `CC(C)C[C@@H](NC(=O)[C@H](CCCCN)NC(=O)N[C@H](C(=O)O)C(C)C)C(=O)NCCCN[C@H](C[C@H]1O[C@@H](n2ccc(=O)[nH]c2=O)[C@H](O)[C@@H]1O)C(=O)O` [Compound 13, 5′-deoxy-6′-epi-D-Leu muraymycin analogue], at MraY from S. aureus [1], the “fold weaker MraY inhibition than (6′S)-counterpart” value was found to be 12 fold and the 50% inhibitory concentration (IC50) was found to be 24 ± 9 µM. In the assay with E. coli, this molecule came in with an MIC of more than 50 µg/mL.

`CC(C)C[C@H](NC(=O)[C@H](CCCCN)NC(=O)N[C@H](C(=O)O)C(C)C)C(=O)NCCCN[C@H](C(=O)O)[C@@H](O)[C@H]1O[C@@H](n2ccc(=O)[nH]c2=O)[C@H](O)[C@@H]1O` [Compound 16, 5′-epi-L-Leu muraymycin analogue]: the “fold more active (MraY) than D-leucine epimer 17” value on MraY from S. aureus [1] (16 vs. 17) was ~ 3 fold. Moreover, on MraY from S. aureus [1], the 50% inhibitory concentration (IC50) came out at 6.2 ± 2.8 µM. The molecule further had an MIC in the assay with E. coli of more than 50 µg/mL.

In the case of `CC(C)C[C@H](NC(=O)[C@H](CCCCN)NC(=O)N[C@H](C(=O)O)C(C)C)C(=O)NCCCN[C@H](C[C@H]1O[C@@H](n2ccc(=O)[nH]c2=O)[C@H](O)[C@@H]1O)C(=O)O` [Compound 12, 5′-deoxy-6′-epi-L-Leu muraymycin analogue], at MraY from S. aureus [1], the “fold weaker MraY inhibition than (6′S)-counterpart” value was found to be 15 fold and the IC50 was 38 ± 6 µM. In addition, the minimal inhibitory concentration (MIC) against E. coli is more than 50 µg/mL.

With `CC(C)C[C@@H](NC(=O)[C@H](CCCCN)NC(=O)N[C@H](C(=O)O)C(C)C)C(=O)NCCCN[C@@H](C(=O)O)[C@H](O)[C@H]1O[C@@H](n2ccc(=O)[nH]c2=O)[C@H](O)[C@@H]1O` [Compound 15, 6′-epi-D-Leu muraymycin analogue], the IC50 on MraY from S. aureus [1] came to 10 ± 2 µM. For the same molecule, in the assay on E. coli, the MIC was more than 50 µg/mL.

`CC(C)C[C@@H](NC(=O)[C@H](CCCCN)NC(=O)N[C@H](C(=O)O)C(C)C)C(=O)NCCCN[C@H](C(=O)O)[C@@H](O)[C@H]1O[C@@H](n2ccc(=O)[nH]c2=O)[C@H](O)[C@@H]1O` [Compound 17, 5′-epi-D-Leu muraymycin analogue]: the IC50 on MraY from S. aureus [1] was found to be 21 ± 4 µM. The molecule further showed an MIC against E. coli of more than 50 µg/mL.

Take `CC(C)C[C@H](NC(=O)[C@H](CCCCN)NC(=O)N[C@H](C(=O)O)C(C)C)C(=O)NCCCN[C@@H](C(=O)O)[C@H](O)[C@H]1O[C@@H](n2ccc(=O)[nH]c2=O)[C@H](O)[C@@H]1O` [Compound 14, 6′-epi-L-Leu muraymycin analogue]: the IC50 at MraY from S. aureus [1] turned out to be 10 ± 4 µM. In the assay on E. coli, the MIC is more than 50 µg/mL.

`CC(C)[C@H](NC(=O)N[C@H](C(=O)N[C@H](C(=O)NCCCN[C@@H](C[C@H]1O[C@@H](n2ccc(=O)[nH]c2=O)[C@H](O)[C@@H]1O)C(=O)O)[C@@H](O)C(C)C)[C@@H]1CCNC(=N)N1)C(=O)O` [Compound 9]: at MraY from S. aureus [2], the IC50 is 0.095 ± 0.019 µM.

On to `CC(C)C[C@@H](NC(=O)[C@H](CCCCN)NC(=O)N[C@H](C(=O)O)C(C)C)C(=O)NCCCN[C@@H](C[C@H]1O[C@@H](n2ccc(=O)[nH]c2=O)[C@H](O)[C@@H]1O)C(=O)O` [Compound 11, 5′-deoxy-D-Leu muraymycin analogue], for which the IC50 at MraY from S. aureus [1] came out at 2 ± 0.6 µM. Also, in the assay on E. coli, the MIC was more than 50 µg/mL.

(Values after PMC6278576, “Analogues of Muraymycin Nucleoside Antibiotics with Epimeric Uridine-Derived Core Structures” (Molecules, 2018).)
